In assay [1] the test system is P. aeruginosa PAO1-derived biomonitor strains pPCS 1001 and pPCS 1002. As to the kind of experiment: Anti-QS agar well bioassay with lacZ biomonitor strains. It is filed as cell-based, Pseudomonas aeruginosa. To be noted: 10 μl aliquot per well. As to the method: These strains harbor lacZ fusions to the QS gene promoter regions enabling blue/white selection for QS activity. […] Briefly, LB agar plates were seeded with a lawn of one of the biomonitor strains and allowed to dry for 1 hour. Small wells were then cut and aspirated from the agar, and 10 μl aliquots of each fraction were pipetted into each well. Wells were checked at 18 h and 24 h for zones of QS inhibition.
Each fraction was pipetted into a small well in an agar plate seeded with one of these biomonitor strains and the appropriate reagents for visualization of lacZ activity.

Assay [2] concerns lasI. As to the kind of experiment: QS gene expression, promoter-lacZ fusion β-galactosidase assay, lasI. In kind it is cell-based, Pseudomonas aeruginosa. Particulars: 40 μg/ml of sample. As for the experimental part:
(§1) Samples were tested at the following concentrations: 1 mg/ml crude extract of C. erectus, 40 μg/ml crude extract, 40 μg/ml vescalagin, or 40 μg/ml castalagin. These additions were compared to a media-only control for the reduction of QS.

The test system of assay [3] is rhlI. Particulars: 40 μg/ml of sample. As for the experimental part:
as §1

Assay [4] concerns lasR. Particulars: 40 μg/ml of sample. As for the experimental part: as §1
For assay [5], the system named is rhlR. To be noted: 40 μg/ml of sample. As for the experimental part: as §1
The test system of assay [6] is pyoverdin. As to the kind of experiment: Pyoverdin production (supernatant fluorescence). It is filed as cell-based, Pseudomonas aeruginosa. Particulars: PAO1 grown with 40 μg/ml of sample. From the text: Pyoverdins function as siderophores essentially starving host tissues by competing with mammalian transferrin for iron. They also promote pathogenicity by stimulating bacterial growth (Cox & Adams, 1985), while auto-regulating themselves and the production of other toxins. Relative concentration of pyoverdin was based on fluorescence of the supernatant at an excitation wavelength of 405 nm and an emission wavelength of 465 nm (Gemini EM microplate reader). […] This is consistent with our previous data on C. erectus (Adonizio et al., 2008b).

For assay [7], the system named is C4-AHL (BHL). As to the kind of experiment: AHL production, C4-AHL. Particulars: for AHL production C4-AHL: 40 μg/ml of sample. It is filed as cell-based, Pseudomonas aeruginosa. The source says: (§2) P. aeruginosa manufactures two main QS signaling molecules N-(3-oxododecanoyl)-L-homoserine lactone (OdDHL) and N-butanoyl-L-homoserine lactone (BHL) called autoinducers (Pearson et al., Proc. Natl. Acad. Sci. USA, 92:1490-1494, 1994). These molecules diffuse into the environment, and when they reach a putative threshold concentration, they activate the QS receptor genes.

The test system of assay [8] is C12-AHL (OdDHL). Kind of assay: AHL production, C12-AHL. It is filed as cell-based, Pseudomonas aeruginosa. To be noted: 40 μg/ml of sample.
Text: as §2

In assay [9] the test system is LasA protease. As to the kind of experiment: LasA staphylolytic assay of culture supernatants. In kind it is cell-based, Pseudomonas aeruginosa. To be noted: for LasA Activity: PAO1 grown with 40 μg/ml of sample; for decrease in LasA activity compared to control: crude extract printed 40 pg/ml, purified compounds 40 μg/ml. As to the method: LasA belongs to the p-lytic endopeptidase class of proteases (Kessler, 1995) and plays a major role in host tissue degradation (Kharazmi, 1989; Morihara & Homma, 1985). LasA protease activity was determined by measuring the ability of culture supernatants to lyse boiled S. aureus cells (Kong et al., Int. J. Med. Microbiol., 296:133-139, 2006). There was a significant decrease in LasA activity compared to that of the control when strain PAO1 was grown in the presence of C. erectus crude extract at 1 mg/ml (91% decrease), and a lesser effect at […] (26% decrease) (Table 1). Purified vescalagin and castalagin affected significant reductions in LasA activity as well, with decreases of 73% and 80%, respectively (Table 1).

The subject of assay [10] is QS genes (lasI, lasR, rhlI, rhlR). As to the kind of experiment: QS gene expression, summary over all tested QS genes. In kind it is cell-based, Pseudomonas aeruginosa. Particulars: 40 μg/ml. As for the experimental part: as §1
The test system of assay [11] is LasB elastase. As to the kind of experiment: LasB elastolytic activity of culture supernatants (elastin Congo red). It is filed as cell-based, Pseudomonas aeruginosa. To be noted: for decrease in LasB activity compared to control: 40 ug/ml; for Elastase Activity: PAO1 grown with 40 μg/ml of sample. As to the method: LasB elastase is a zinc metalloprotease capable of affecting the host immune system and destroying biological tissue (Bever & Iglewski, 1988). The elastolytic activity of culture supernatants was determined using elastin Congo red (ECR; Sigma, St. Louis, Mo.) (Ohman et al., 1980). There was a significant decrease in LasB activity compared to that of the control when PAO1 was grown in the presence of C. erectus at 1 mg/ml (70% decrease) or 40 ug/ml (60% decrease) (Table 1). Purified vescalagin and castalagin also affected significant reductions in LasB activity, with decreases of 67% and 63%, respectively (Table 1).

For assay [12], the system named is P. putida. To be noted: concentrations up to 30 μg/ml; cited from earlier work.
Assay [13] has as its system LasB. To be noted: P. putida grown in the presence of 30 μg/ml; cited from earlier work.

Structures are written as SMILES.

For `O=C1OC[C@H]2OC(=O)c3cc(O)c(O)c(O)c3-c3c(O)c(O)c(O)c4c3C(=O)O[C@H]([C@H]3OC(=O)c5c-4c(O)c(O)c(O)c5[C@H]3O)[C@@H]2OC(=O)c2cc(O)c(O)c(O)c2-c2c1cc(O)c(O)c2O` [Castalagin, castalagin], the “anti-QS activity of HPLC fractions of Fraction A” value in assay [1] is “activity”. Moreover, the “Gene Expression (measured via β-galactosidase activity of the lacZ fusion products) las1” value in assay [2] is 2465 ± 116 Milller Units. The “Gene Expression (measured via β-galactosidase activity of the lacZ fusion products) rhll” value in assay [3] turned out to be 4542 ± 199 Milller Units. In addition, the “Gene Expression (measured via β-galactosidase activity of the lacZ fusion products) lasR” value in assay [4] is recorded as 2160 ± 509 Milller Units. Moreover, the “Gene Expression (measured via β-galactosidase activity of the lacZ fusion products) rhlR” value in assay [5] is given as 4904 ± 348 Milller Units. The Pyoverdin production in assay [6] is 4207 ± 150 fluorescence (405/465 nm) per μg of protein. The “AHL production C4-AHL” value in assay [7] was 0.703 ± 0.01 µM. Also, the “AHL production C12-AHL” value in assay [8] was determined as 1.389 ± 0.20 µM. Further, in assay [9], the “LasA Activity” value is on record as 0.048 ± 0.003 reduction in OD600/hour per μg total protein and the “decrease in LasA activity compared to control” value was determined as 80%. For the same compound, the “effect on expression of QS genes” value in [10] is “reduced all QS gene levels save for rhlI”. In addition, in [11], the “decrease in LasB activity compared to control” value turned out to be 63% and the “Elastase Activity” value is on record as 52.7 ± 9.0 absorbance at OD495 per μg of protein × 1000.
In the case of `O=C1OCC2OC(=O)c3cc(O)c(O)c(O)c3-c3c(O)c(O)c(O)c4c3C(=O)OC(C2OC(=O)c2cc(O)c(O)c(O)c2-c2c1cc(O)c(O)c2O)C1OC(=O)c2c-4c(O)c(O)c(O)c2C1O` (centres unmarked) [Vescalagin, vescalagin], the “anti-QS activity of HPLC fractions of Fraction A” value in assay [1] was “activity”. Besides, the “Gene Expression (measured via β-galactosidase activity of the lacZ fusion products) las1” value in assay [2] worked out at 2049 ± 93 Milller Units. The “Gene Expression (measured via β-galactosidase activity of the lacZ fusion products) rhll” value in [3] was found to be 3514 ± 306 Milller Units. Moreover, in [4], the “Gene Expression (measured via β-galactosidase activity of the lacZ fusion products) lasR” value is 1703 ± 297 Milller Units. The “Gene Expression (measured via β-galactosidase activity of the lacZ fusion products) rhlR” value in assay [5] is on record as 4129 ± 287 Milller Units. Also, in assay [6], the Pyoverdin production is listed as 4226 ± 138 fluorescence (405/465 nm) per μg of protein. The “AHL production C4-AHL” value in assay [7] turned out to be 0.489 ± 0.01 µM. The “reduction of BHL levels” value in assay [7] (purified compound, 40 μg/ml) amounted to 21%. In addition, the “AHL production C12-AHL” value in assay [8] came to 1.227 ± 0.16 µM. In [9], the “LasA Activity” value is 0.066 ± 0.008 reduction in OD600/hour per μg total protein and the “decrease in LasA activity compared to control” value was 73%. In addition, the “effect on expression of QS genes” value in [10] is recorded as “reduced all QS gene levels including rhlI to a greater extent than castalagin”. Moreover, in assay [11], the “decrease in LasB activity compared to control” value is given as 67% and the “Elastase Activity” value was 47.2 ± 6.8 absorbance at OD495 per μg of protein × 1000.
Take `O=c1oc2c(O)c(O)cc3c(=O)oc4c(O)c(O)cc1c4c23` [ellagic acid]: the effect on growth entry in [12] was “no effect”. The “decrease in LasB activity” value in assay [13] was 40%.

These data come from US20130317094A1, “USE OF ELLAGITANNINS AS INHIBITORS OF BACTERIAL QUORUM SENSING” (priority 2008, published 2013).
